ChEMBL document CHEMBL1201862, “PubChem BioAssay data set” (2004)
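Cultured in 96-well plates, cells were exposed to test compound for 48 hours across five concentrations. GI50 is the concentration that inhibits growth by half.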 Calls of active or inactive are those of the source. Cut-off read from the data, not from the text of the source: active = GI50 up to about 1.1 µM and inactive = higher.

Key:
Assay in all cases: DTP human tumour cell line panel, 48 h
[1] = system: NCI-H23
[2] = system: NCI-H226
[3] = system: UACC-257
[4] = system: UACC-62
[5] = system: M14
[6] = system: SK-MEL-28
[7] = system: HOP-92
[8] = system: HCC 2998
[9] = system: SK-OV-3
[10] = system: LOX IMVI
[11] = system: TK-10
[12] = system: HOP-62
[13] = system: A498
[14] = system: UO-31
[15] = system: CAKI-1
[16] = system: CCRF-CEM
[17] = system: A549
[18] = system: SN12C
[19] = system: Hs-578T

Row | Compound | GI50 [1] | GI50 [2] | GI50 [3] | GI50 [4] | GI50 [5] | GI50 [6] | GI50 [7] | GI50 [8] | GI50 [9] | GI50 [10] | GI50 [11] | GI50 [12] | GI50 [13] | GI50 [14] | GI50 [15] | GI50 [16] | GI50 [17] | GI50 [18] | GI50 [19]
1 | C[C@H]1CC(=O)C2=CCCC3(SCCCS3)[C@@H]2[C@H]1CO | > 100 µM (inactive) | > 100 µM (inactive) | > 100 µM (inactive) | > 100 µM (inactive) | > 100 µM (inactive) | > 100 µM (inactive) | > 100 µM (inactive) | > 100 µM (inactive) | > 100 µM (inactive) | > 100 µM (inactive) | > 100 µM (inactive) | > 100 µM (inactive) | > 100 µM (inactive) | > 100 µM (inactive) | > 100 µM (inactive) | 26.9 µM (inactive) | > 100 µM (inactive) | > 100 µM (inactive) | –
2 | CC(C)OP(=O)(OC(C)C)/C(=N/Nc1ccccc1[N+](=O)[O-])NCCN/C(=N\Nc1ccccc1[N+](=O)[O-])P(=O)(OC(C)C)OC(C)C | 14.5 µM (inactive) | 24.4 µM (inactive) | 29.2 µM (inactive) | 19.2 µM (inactive) | 36.1 µM (inactive) | 39.4 µM (inactive) | 32 µM (inactive) | 39.4 µM (inactive) | – | 30.2 µM (inactive) | 39.1 µM (inactive) | 52.8 µM (inactive) | 49.5 µM (inactive) | 29.3 µM (inactive) | 25.6 µM (inactive) | 22.2 µM (inactive) | 29.4 µM (inactive) | 43.7 µM (inactive) | –
3 | COc1cc(/C=C\c2ccc(C)cc2)cc(OC)c1OC | 0.0363 µM (active) | 0.0266 µM (active) | 0.00904 µM (active) | 0.00885 µM (active) | 0.00723 µM (active) | 0.0167 µM (active) | 0.0652 µM (active) | 0.0191 µM (active) | 0.0017 µM (active) | 0.00433 µM (active) | 0.0731 µM (active) | 0.0355 µM (active) | < 0.01 µM (active) | 0.12 µM (active) | < 0.01 µM (active) | 0.00227 µM (active) | 0.0048 µM (active) | 0.0105 µM (active) | 0.0244 µM (active)
4 | Cc1cn(C2OC(C)(CO)C(O)C2O)c(=O)[nH]c1=O (stereo not given) | > 100 µM (inactive) | – | – | > 100 µM (inactive) | > 100 µM (inactive) | > 100 µM (inactive) | > 100 µM (inactive) | > 100 µM (inactive) | > 100 µM (inactive) | > 100 µM (inactive) | > 100 µM (inactive) | > 100 µM (inactive) | > 100 µM (inactive) | > 100 µM (inactive) | > 100 µM (inactive) | > 100 µM (inactive) | > 100 µM (inactive) | > 100 µM (inactive) | –
5 | O=C1CSC(c2ccc([N+](=O)[O-])cc2)N1c1nc(-c2ccc3c(c2)CCCC3)cs1 (stereo not given) | > 100 µM (inactive) | > 100 µM (inactive) | > 100 µM (inactive) | 63.1 µM (inactive) | – | > 100 µM (inactive) | – | > 100 µM (inactive) | – | 25.1 µM (inactive) | > 100 µM (inactive) | > 100 µM (inactive) | > 100 µM (inactive) | > 100 µM (inactive) | > 100 µM (inactive) | – | – | > 100 µM (inactive) | > 100 µM (inactive)
6 | C=C(NC(=O)C(=C)NC(=O)c1csc(C2=NC3c4csc(n4)C4NC(=O)c5csc(n5)C(C(C)(O)C(C)O)NC(=O)C5CSC(=N5)/C(=C/C)NC(=O)C(C(C)O)NC(=O)c5csc(n5)C3(CC2)NC(=O)C(C)NC(=O)C(=C)NC(=O)C(C)NC(=O)C(C(C)CC)NC2C=Cc3c(C(C)O)cc(nc3C2O)C(=O)OC4C)n1)C(N)=O (stereo not given) | 2.79 µM (inactive) | 1.9 µM (inactive) | 1.75 µM (inactive) | 1.24 µM (inactive) | 1.67 µM (inactive) | 1.27 µM (inactive) | 1.7 µM (inactive) | 6.67 µM (inactive) | 15 µM (inactive) | 1.08 µM (active) | 2.75 µM (inactive) | 9.35 µM (inactive) | 1.74 µM (inactive) | > 78.3 µM (inactive) | 2.92 µM (inactive) | 0.297 µM (active) | 4.57 µM (inactive) | 1.94 µM (inactive) | –
7 | O=C(OC1CCC(=C2SCCCS2)[C@H]1C1SCCCS1)c1ccccc1 (stereo not given in full) | > 100 µM (inactive) | 30.5 µM (inactive) | > 100 µM (inactive) | 45.4 µM (inactive) | > 100 µM (inactive) | – | 16.9 µM (inactive) | > 100 µM (inactive) | > 100 µM (inactive) | > 100 µM (inactive) | > 100 µM (inactive) | > 100 µM (inactive) | > 100 µM (inactive) | 24.5 µM (inactive) | – | > 100 µM (inactive) | > 100 µM (inactive) | > 100 µM (inactive) | –
8 | CCOC(OCC)[C@H](N)[C@@H](O)[C@@H](O)[C@H]1COC(C)(C)O1 | > 100 µM (inactive) | > 100 µM (inactive) | > 100 µM (inactive) | > 100 µM (inactive) | > 100 µM (inactive) | > 100 µM (inactive) | – | – | > 100 µM (inactive) | > 100 µM (inactive) | > 100 µM (inactive) | > 100 µM (inactive) | > 100 µM (inactive) | > 100 µM (inactive) | – | > 100 µM (inactive) | > 100 µM (inactive) | > 100 µM (inactive) | > 100 µM (inactive)
9 | CCN(CC)C(=S)Nc1ccc(-c2cc3ccc(O)cc3oc2=O)cc1 | 29.7 µM (inactive) | 25.6 µM (inactive) | 22 µM (inactive) | 32.4 µM (inactive) | 27.2 µM (inactive) | 25.9 µM (inactive) | – | 20.2 µM (inactive) | 44.1 µM (inactive) | 25.9 µM (inactive) | 39 µM (inactive) | – | 20.8 µM (inactive) | 17.5 µM (inactive) | 31.2 µM (inactive) | 16.4 µM (inactive) | 44.9 µM (inactive) | 27 µM (inactive) | 25.4 µM (inactive)
10 | O=Cc1ccccc1COC(=O)c1cc(C(=O)OCc2ccccc2C=O)c(C(=O)OCc2ccccc2C=O)cc1C(=O)OCc1ccccc1C=O | > 100 µM (inactive) | > 100 µM (inactive) | > 100 µM (inactive) | > 100 µM (inactive) | > 100 µM (inactive) | > 100 µM (inactive) | 31.6 µM (inactive) | > 100 µM (inactive) | > 100 µM (inactive) | 42 µM (inactive) | 61.9 µM (inactive) | – | > 100 µM (inactive) | > 100 µM (inactive) | > 100 µM (inactive) | 43.4 µM (inactive) | > 100 µM (inactive) | > 100 µM (inactive) | –
11 | COC1=C2C[C@H](O)C(C)C[C@@]2(OC)OC1=O (stereo not given in full) | > 100 µM (inactive) | – | > 100 µM (inactive) | > 100 µM (inactive) | > 100 µM (inactive) | > 100 µM (inactive) | > 100 µM (inactive) | > 100 µM (inactive) | > 100 µM (inactive) | > 100 µM (inactive) | – | > 100 µM (inactive) | > 100 µM (inactive) | > 100 µM (inactive) | > 100 µM (inactive) | > 100 µM (inactive) | > 100 µM (inactive) | > 100 µM (inactive) | –
12 | O=c1ncccn1C1OC(CO)C(O)C1O (stereo not given) | > 100 µM (inactive) | > 100 µM (inactive) | > 10 µM (inactive) | > 100 µM (inactive) | > 100 µM (inactive) | > 100 µM (inactive) | > 100 µM (inactive) | > 100 µM (inactive) | > 100 µM (inactive) | > 100 µM (inactive) | > 100 µM (inactive) | – | > 100 µM (inactive) | > 100 µM (inactive) | > 100 µM (inactive) | > 100 µM (inactive) | > 100 µM (inactive) | > 100 µM (inactive) | –
13 | O=c1c2c(c1=O)-c1ccccc1CN2 | > 100 µM (inactive) | > 100 µM (inactive) | > 100 µM (inactive) | > 100 µM (inactive) | > 100 µM (inactive) | > 100 µM (inactive) | > 100 µM (inactive) | > 100 µM (inactive) | > 100 µM (inactive) | > 100 µM (inactive) | > 100 µM (inactive) | > 100 µM (inactive) | > 100 µM (inactive) | > 100 µM (inactive) | > 100 µM (inactive) | > 100 µM (inactive) | > 100 µM (inactive) | > 100 µM (inactive) | –
14 | NC1=NS(=O)(=O)Nc2nc(-c3ccc(Cl)cc3)[nH]c21 | > 100 µM (inactive) | – | – | > 100 µM (inactive) | > 100 µM (inactive) | > 100 µM (inactive) | 88.1 µM (inactive) | > 100 µM (inactive) | > 100 µM (inactive) | > 100 µM (inactive) | > 100 µM (inactive) | > 100 µM (inactive) | > 100 µM (inactive) | > 100 µM (inactive) | > 100 µM (inactive) | > 100 µM (inactive) | > 100 µM (inactive) | > 100 µM (inactive) | –
15 | CC1=CC(=O)/C(=C/NC(=O)NN)C(=O)O1 | > 100 µM (inactive) | – | > 100 µM (inactive) | > 100 µM (inactive) | > 100 µM (inactive) | 54.5 µM (inactive) | > 100 µM (inactive) | > 100 µM (inactive) | > 100 µM (inactive) | > 100 µM (inactive) | > 100 µM (inactive) | > 100 µM (inactive) | – | > 100 µM (inactive) | > 100 µM (inactive) | > 100 µM (inactive) | > 100 µM (inactive) | > 100 µM (inactive) | > 100 µM (inactive)
16 | CCOC(=O)C1=CCOc2cc(N(C)C)ccc21 | > 100 µM (inactive) | > 100 µM (inactive) | > 100 µM (inactive) | > 100 µM (inactive) | > 100 µM (inactive) | > 100 µM (inactive) | – | > 100 µM (inactive) | > 100 µM (inactive) | > 100 µM (inactive) | > 100 µM (inactive) | > 100 µM (inactive) | > 100 µM (inactive) | > 100 µM (inactive) | > 100 µM (inactive) | 21.6 µM (inactive) | > 100 µM (inactive) | > 100 µM (inactive) | > 100 µM (inactive)
